{"source": "patent US20220233503A1", "about": "“METHODS OF TREATING SEPSIS WITH SYNAPTIC VESICLE 2A AND/OR 2B BINDING CHEMICAL ENTITIES” (INSTITUT PASTEUR, priority 2016, published 2022)", "key": {"CLP mice": {"system": "CLP mice", "assay": "Morris water maze after sepsis", "assay_type": "in vivo", "description": "Comportemental tests: Every comportemental tests were started 15 days after sepsis induction. The experimentator was blinded to the experimental group.\nMorris Water Maze was realized as described by Vorhees et al. Nature Protocols 2006. It consisted in a phase of spatial learning and a probe trial. During the first phase the animal learns spatial position of a platform (11 cm diameter) hidden in a swimming pool (120 cm diameter) with opaque water relatively to cues placed on the water tank and in the experimental room. The animal is released in a random quadrant 4 times per day during 7 days. The distance (cm) before reaching the platform, the latency (s) and the proportion of time spent in each quadrant is measured. After each day the learning curve of mice reaching the platform is drawn. If this curve reached a plateau, the probe trial is realized the next day. Probe trial consists in a recall of the spatial reference memory.\nFigures J-M. Morris water Maze test (MWM) and Novel Object Location/Recognition tests."}, "[1]": {"system": "primary murine microglial cells", "assay": "Cytokine transcription in LPS-activated primary microglial cells", "assay_type": "cell-based, C57/B16 mice", "details": "for increase of TNFalpha gene expression: p<0.0001; for IL6 gene expression: 24 hours", "description": "NO: 53) and anti-sense primer:[…] NO: 54). […] ID NO: 55) and anti-sense primer […] NO: 56). […] NO: 57) and anti-sense primer:[…] NO: 58)."}, "Caspase 3": {"system": "Caspase 3", "assay": "Caspase 3 cleavage and apoptotic cell count in brain after sepsis", "assay_type": "in vivo", "details": "septic mice, Western blot cleaved caspase 3 vs procaspase 3, whole brain", "quoted_text": "A—Western Blot from cleaved caspase 3 from macerated brain parenchyma. B—Mean±SEM of ratios between intensity of cleaved caspase 3 vs. procaspase 3. […] D-G Cell count for late and early stage of apoptosis. WM Whitte matter, DG, Dentate Gyms, CC3 Cleaved Caspase 3."}}, "data": [{"smiles": "CC[C@@H](C(N)=O)N1CCCC1=O", "note": "(single isomer, unassigned) [levetiracetam]", "values": [{"measurement": "Morris water maze learning to locate the platform (AUC of learning curve)", "setting": "CLP mice; septic mice", "value": "did not present an effect"}, {"measurement": "Morris water maze test day time in platform quadrant", "setting": "CLP mice; test day (probe trial), all groups", "value": "same amount of time"}, {"measurement": "increase of TNFalpha gene expression", "setting": "[1]; high LPS (10 ng/mL), high dose levetiracetam (100 micrograms/mL), [0.86-0.30]", "value": 0.58}, {"measurement": "decrease of TNFalpha gene expression", "setting": "[1]; high LPS (10 ng/mL), low dose levetiracetam (10 micrograms/mL), [0.10-0.66], p<0.01", "value": 0.38}, {"measurement": "IL6 gene expression", "setting": "[1]; high-dose LPS (10 ng/mL), high-dose levetiracetam (100 micrograms/mL), [0.25-0.97], p<0.001", "value": 0.61, "unit": "fold"}, {"measurement": "IL1 beta expression", "setting": "[1]; in vitro, activated microglial cell or not", "value": "No effect"}, {"measurement": "increase of TNFalpha gene expression", "setting": "[1]; low LPS (1 ng/mL), low levetiracetam (10 micrograms/mL), [0.82-0.26]", "value": 0.53}, {"measurement": "IL6 gene expression", "setting": "[1]; low-dose LPS challenge (1 ng/mL)", "value": "did not modify"}, {"measurement": "cleavage of Caspase 3 in the brain", "setting": "Caspase 3", "value": "reduces"}]}]}
